Like-named read-outs stand apart in the source and are kept apart here. Peptide text beside a SMILES is read from it.
Target: T1, HDAC2 (Homo sapiens, UniProt Q92769)
T1 construct: purchased Reaction Biology Corporation (assay run by the CRO)
Experiment: Initial HDAC2 IC50 estimate (BPS Biosciences HDAC fluorogenic assay kit)
Type: biochemical
Procedure: Initial IC50 values were estimated using HDAC fluorogenic assay kits from BPS Biosciences (HDAC2, HDAC4, and HDAC6) following the protocol described in the kit. All the measures were performed in duplicates or triplicates. These measurements were done either on full range of concentrations (1:10 dilution from 1 µM to 100 pM) or on two concentrations only (20 nM and 200 nM) as an estimate of the range. […] Source Data are provided as a Source Data file.

[1] = HDAC2 activity (initial activity), Supplementary Dataset 2

T1 sequence (Q92769 whole entry): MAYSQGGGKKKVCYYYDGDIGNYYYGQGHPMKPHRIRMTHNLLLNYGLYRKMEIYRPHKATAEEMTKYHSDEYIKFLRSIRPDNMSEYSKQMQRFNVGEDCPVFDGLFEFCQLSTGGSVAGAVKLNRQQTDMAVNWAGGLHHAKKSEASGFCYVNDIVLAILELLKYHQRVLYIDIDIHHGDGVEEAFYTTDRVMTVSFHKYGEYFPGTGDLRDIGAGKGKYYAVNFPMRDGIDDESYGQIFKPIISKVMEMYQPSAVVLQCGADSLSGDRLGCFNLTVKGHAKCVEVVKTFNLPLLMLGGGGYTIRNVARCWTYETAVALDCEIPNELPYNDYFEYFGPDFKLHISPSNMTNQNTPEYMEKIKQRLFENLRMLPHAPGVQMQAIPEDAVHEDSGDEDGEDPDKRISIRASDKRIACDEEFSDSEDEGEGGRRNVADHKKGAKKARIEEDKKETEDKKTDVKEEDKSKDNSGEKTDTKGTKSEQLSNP

| Structure (SMILES) | IC50 (Supplementary Dataset 2, read-out: HDAC2 activity (initial activity)) | IC50 [1] | IC50 (HDAC2 activity (initial values for HDAC2 IC50), Supp. Table 4, rough estimates, for promising hits full measurements) |
| --- | --- | --- | --- |
| CCCC[C@@H]1NC(=O)[C@H](CCCCCS)NC(=O)[C@H](CCc2ccccc2)NC(=O)[C@H](C)NC(=O)[C@@H]2CCCN2C(=O)[C@@H](CC(=O)O)NC(=O)[C@@H](CO)NC(=O)[C@H](Cc2c[nH]c3ccccc23)NC(=O)[C@@H](CO)NC1=O [des3.7.0, SHA-Nlu-dSer-Trp-dSer-dAsp-Pro-Ala-C27] (HELM PEPTIDE1{[O=C([C@H](CCCCCS)N[*:1])[*:2]].[Nle].[dS].W.[dS].[dD].P.A.[O=C([C@H](CCc1ccccc1)N[*:1])[*:2]]}$PEPTIDE1,PEPTIDE1,1:R1-9:R2$$$V2.0) | > 1 µM |  |  |
| C[C@H]1NC(=O)[C@@H](Cc2c[nH]cn2)NC(=O)[C@H](CCCCCS)NC(=O)[C@H](Cc2c[nH]c3ccccc23)NC(=O)[C@@H](CCCNC(=N)N)NC(=O)[C@@H]2CCCN2C(=O)[C@@H](CC(N)=O)NC(=O)[C@@H](CC(N)=O)NC(=O)[C@H](Cc2ccc(O)cc2)NC1=O [des3.6.0, SHA-dHis-dAla-Tyr-dAsn-dAsn-Pro-dArg-Trp] (HELM PEPTIDE1{P.[dR].W.[O=C([C@H](CCCCCS)N[*:1])[*:2]].[dH].[dA].Y.[dN].[dN]}$PEPTIDE1,PEPTIDE1,1:R1-9:R2$$$V2.0) |  | > 1 µM |  |
| NCCCC[C@@H]1NC(=O)[C@@H]2CCCN2C(=O)[C@H](CC(N)=O)NC(=O)[C@H](CCCCCS)NC(=O)CNC(=O)[C@H](Cc2c[nH]c3ccccc23)NC(=O)[C@@H](CCCCN)NC(=O)[C@H](CN)NC1=O [des1.1.3, SHA-Asn-Pro-Lys-Dap-dLys-Trp-Gly] (HELM PEPTIDE1{[NC[C@H](N[*:1])C(=O)[*:2]].[dK].W.G.[O=C([C@H](CCCCCS)N[*:1])[*:2]].N.P.K}$PEPTIDE1,PEPTIDE1,1:R1-8:R2$$$V2.0) |  | 0.1 µM | 0.01 to 0.1 µM |
| CC(C)C[C@@H]1NC(=O)[C@@H](CCC(=O)O)NC(=O)[C@@H](CC(N)=O)NC(=O)[C@@H](Cc2c[nH]cn2)NC(=O)[C@H](CCCCCS)NC(=O)[C@H](Cc2ccc3ccccc3c2)NC(=O)[C@H](CCCNC(=N)N)NC(=O)[C@@H]2CCCN2C(=O)[C@@H](C)NC1=O [des3.8.0, SHA-dHis-dAsn-dGlu-Leu-dAla-Pro-Arg-B74] (HELM PEPTIDE1{[O=C([C@H](Cc1ccc2ccccc2c1)N[*:1])[*:2]].[O=C([C@H](CCCCCS)N[*:1])[*:2]].[dH].[dN].[dE].L.[dA].P.R}$PEPTIDE1,PEPTIDE1,1:R1-9:R2$$$V2.0) |  | > 1 µM |  |
| N=C(N)NCCC[C@@H]1NC(=O)[C@@H](CCCNC(=N)N)NC(=O)[C@H]2CCCN2C(=O)[C@@H](CC(N)=O)NC(=O)[C@H](Cc2ccc(O)cc2)NC(=O)[C@H](CCCCCS)NC(=O)[C@H](CCc2ccccc2)NC(=O)[C@@H](CCCCN)NC(=O)[C@H](CC(=O)O)NC1=O [des3.4.0, SHA-Tyr-dAsn-dPro-dArg-Arg-Asp-dLys-C27] (HELM PEPTIDE1{D.[dK].[O=C([C@H](CCc1ccccc1)N[*:1])[*:2]].[O=C([C@H](CCCCCS)N[*:1])[*:2]].Y.[dN].[dP].[dR].R}$PEPTIDE1,PEPTIDE1,1:R1-9:R2$$$V2.0) |  | 0.01 to 0.1 µM |  |

Source: PMC8185074, “Anchor extension: a structure-guided approach to design cyclic peptides targeting enzyme active sites” (Nature Communications, 2021)
